Assay results taken from patent US20240000872A1, “NOVEL BACTERIOPHAGE THAT LYSES ACINETOBACTER GENUS BACTERIA HAVING RESISTANCE TO ANTIBIOTICS” (priority 2020, published 2024).

Test system: Acinetobacter baumannii strains
Assay: Antibiotic susceptibility test (CLSI disk diffusion test method, read per CLSI 2016); as to antibiotic susceptibility S/I/R: key: ‘S’ means susceptible; ‘I’ means intermediate; ‘R’ means resistant; as to susceptibility category (S/I/R): key: ‘S’ means susceptible; ‘I’ means intermediate; ‘R’ means resistant
Assay type: cell-based
Parameters: antibiotic susceptibility test value / susceptibility test value (number given before S/I/R) / antibiotic susceptibility value: unit not given here

gentamicin
1: antibiotic susceptibility value (host strain YMC17/01/B12075) | susceptibility test value (number given before S/I/R) (host strain YMC17/01/B12075) | antibiotic susceptibility value (host strain YMC17/02/B4864) | susceptibility test value (number given before S/I/R) (host strain YMC17/02/B4864)
16: antibiotic susceptibility value (host strain YMC16/01/R353) | susceptibility test value (number given before S/I/R) (host strain YMC16/01/R353) | antibiotic susceptibility value (host strain YMC16/01/R380) | susceptibility test value (number given before S/I/R) (host strain YMC16/01/R380) | antibiotic susceptibility value (host strain YMC16/01/R397) | susceptibility test value (number given before S/I/R) (host strain YMC16/01/R397) | antibiotic susceptibility value (host strain YMC16/01/R405) | susceptibility test value (number given before S/I/R) (host strain YMC16/01/R405) | antibiotic susceptibility value (host strain YMC16/03/R4461) | susceptibility test value (number given before S/I/R) (host strain YMC16/03/R4461) | antibiotic susceptibility value (host strain YMC16/05/R2210) | susceptibility test value (number given before S/I/R) (host strain YMC16/05/R2210) | antibiotic susceptibility value (host strain YMC16/07/R2512) | susceptibility test value (number given before S/I/R) (host strain YMC16/07/R2512) | antibiotic susceptibility value (host strain YMC16/09/R2471) | susceptibility test value (number given before S/I/R) (host strain YMC16/09/R2471) | antibiotic susceptibility value (host strain YMC16/10/R2537) | susceptibility test value (number given before S/I/R) (host strain YMC16/10/R2537) | antibiotic susceptibility value (host strain YMC16/12/B11422) | susceptibility test value (number given before S/I/R) (host strain YMC16/12/B11422) | antibiotic susceptibility value (host strain YMC16/12/B11449) | susceptibility test value (number given before S/I/R) (host strain YMC16/12/B11449) | antibiotic susceptibility value (host strain YMC16/12/B13325) | susceptibility test value (number given before S/I/R) (host strain YMC16/12/B13325) | antibiotic susceptibility value (host strain YMC16/12/P503) | susceptibility test value (number given before S/I/R) (host strain YMC16/12/P503) | antibiotic susceptibility value (host strain YMC16/12/R4637) | susceptibility test value (number given before S/I/R) (host strain YMC16/12/R4637) | antibiotic susceptibility value (host strain YMC17/01/B8053) | susceptibility test value (number given before S/I/R) (host strain YMC17/01/B8053) | antibiotic susceptibility value (host strain YMC17/01/B10087) | susceptibility test value (number given before S/I/R) (host strain YMC17/01/B10087) | antibiotic susceptibility value (host strain YMC17/01/B13454) | susceptibility test value (number given before S/I/R) (host strain YMC17/01/B13454) | antibiotic susceptibility value (host strain YMC17/01/P518) | susceptibility test value (number given before S/I/R) (host strain YMC17/01/P518) | antibiotic susceptibility value (host strain YMC17/01/R2812) | susceptibility test value (number given before S/I/R) (host strain YMC17/01/R2812) | antibiotic susceptibility value (host strain YMC17/02/B14) | susceptibility test value (number given before S/I/R) (host strain YMC17/02/B14) | antibiotic susceptibility value (host strain YMC17/02/B721) | susceptibility test value (number given before S/I/R) (host strain YMC17/02/B721) | antibiotic susceptibility value (host strain YMC17/02/B4039) | susceptibility test value (number given before S/I/R) (host strain YMC17/02/B4039) | antibiotic susceptibility value (host strain YMC17/02/B4520) | susceptibility test value (number given before S/I/R) (host strain YMC17/02/B4520) | antibiotic susceptibility value (host strain YMC17/02/B8414) | susceptibility test value (number given before S/I/R) (host strain YMC17/02/B8414) | antibiotic susceptibility value (host strain YMC17/02/R541) | susceptibility test value (number given before S/I/R) (host strain YMC17/02/R541) | antibiotic susceptibility value (host strain YMC17/02/R2392) | susceptibility test value (number given before S/I/R) (host strain YMC17/02/R2392) | antibiotic susceptibility value (host strain YMC17/03/B4730) | susceptibility test value (number given before S/I/R) (host strain YMC17/03/B4730) | antibiotic susceptibility value (host strain YMC17/03/B5000) | susceptibility test value (number given before S/I/R) (host strain YMC17/03/B5000) | antibiotic susceptibility value (host strain YMC17/03/P971) | susceptibility test value (number given before S/I/R) (host strain YMC17/03/P971) | antibiotic susceptibility value (host strain YMC17/03/R348) | susceptibility test value (number given before S/I/R) (host strain YMC17/03/R348) | antibiotic susceptibility value (host strain YMC17/03/R585) | susceptibility test value (number given before S/I/R) (host strain YMC17/03/R585) | antibiotic susceptibility value (host strain YMC17/03/R1888) | susceptibility test value (number given before S/I/R) (host strain YMC17/03/R1888) | antibiotic susceptibility value (host strain YMC17/03/R3279) | susceptibility test value (number given before S/I/R) (host strain YMC17/03/R3279) | antibiotic susceptibility value (host strain YMC17/03/R4077) | susceptibility test value (number given before S/I/R) (host strain YMC17/03/R4077) | antibiotic susceptibility value (host strain YMC17/03/R4607) | susceptibility test value (number given before S/I/R) (host strain YMC17/03/R4607) | antibiotic susceptibility value (host strain YMC17/04/R488) | susceptibility test value (number given before S/I/R) (host strain YMC17/04/R488) | antibiotic susceptibility value (host strain YMC17/04/R640) | susceptibility test value (number given before S/I/R) (host strain YMC17/04/R640) | antibiotic susceptibility value (host strain YMC/17/05/R1095) | susceptibility test value (number given before S/I/R) (host strain YMC/17/05/R1095)
2: antibiotic susceptibility value (host strain YMC17/02/B87) | susceptibility test value (number given before S/I/R) (host strain YMC17/02/B87)
S: antibiotic susceptibility S/I/R (host strain YMC17/01/B12075) | susceptibility category (S/I/R) (host strain YMC17/01/B12075) | antibiotic susceptibility S/I/R (host strain YMC17/02/B87) | susceptibility category (S/I/R) (host strain YMC17/02/B87) | antibiotic susceptibility S/I/R (host strain YMC17/02/B4864) | susceptibility category (S/I/R) (host strain YMC17/02/B4864) | antibiotic susceptibility S/I/R (host strain YMC17/02/P523) | susceptibility category (S/I/R) (host strain YMC17/02/P523)
4: antibiotic susceptibility value (host strain YMC17/02/P523) | susceptibility test value (number given before S/I/R) (host strain YMC17/02/P523)
R: susceptibility category (S/I/R) (host strain YMC16/01/R353) | antibiotic susceptibility S/I/R (host strain YMC16/01/R380) | susceptibility category (S/I/R) (host strain YMC16/01/R380) | antibiotic susceptibility S/I/R (host strain YMC16/01/R397) | susceptibility category (S/I/R) (host strain YMC16/01/R397) | antibiotic susceptibility S/I/R (host strain YMC16/01/R405) | susceptibility category (S/I/R) (host strain YMC16/01/R405) | antibiotic susceptibility S/I/R (host strain YMC16/03/R4461) | susceptibility category (S/I/R) (host strain YMC16/03/R4461) | antibiotic susceptibility S/I/R (host strain YMC16/05/R2210) | susceptibility category (S/I/R) (host strain YMC16/05/R2210) | antibiotic susceptibility S/I/R (host strain YMC16/07/R2512) | susceptibility category (S/I/R) (host strain YMC16/07/R2512) | antibiotic susceptibility S/I/R (host strain YMC16/09/R2471) | susceptibility category (S/I/R) (host strain YMC16/09/R2471) | antibiotic susceptibility S/I/R (host strain YMC16/10/R2537) | susceptibility category (S/I/R) (host strain YMC16/10/R2537) | antibiotic susceptibility S/I/R (host strain YMC16/12/B11422) | susceptibility category (S/I/R) (host strain YMC16/12/B11422) | antibiotic susceptibility S/I/R (host strain YMC16/12/B11449) | susceptibility category (S/I/R) (host strain YMC16/12/B11449) | antibiotic susceptibility S/I/R (host strain YMC16/12/B13325) | susceptibility category (S/I/R) (host strain YMC16/12/B13325) | antibiotic susceptibility S/I/R (host strain YMC16/12/P503) | susceptibility category (S/I/R) (host strain YMC16/12/P503) | antibiotic susceptibility S/I/R (host strain YMC16/12/R4637) | susceptibility category (S/I/R) (host strain YMC16/12/R4637) | antibiotic susceptibility S/I/R (host strain YMC17/01/B8053) | susceptibility category (S/I/R) (host strain YMC17/01/B8053) | antibiotic susceptibility S/I/R (host strain YMC17/01/B10087) | susceptibility category (S/I/R) (host strain YMC17/01/B10087) | antibiotic susceptibility S/I/R (host strain YMC17/01/B13454) | susceptibility category (S/I/R) (host strain YMC17/01/B13454) | antibiotic susceptibility S/I/R (host strain YMC17/01/P518) | susceptibility category (S/I/R) (host strain YMC17/01/P518) | antibiotic susceptibility S/I/R (host strain YMC17/01/R2812) | susceptibility category (S/I/R) (host strain YMC17/01/R2812) | antibiotic susceptibility S/I/R (host strain YMC17/02/B14) | susceptibility category (S/I/R) (host strain YMC17/02/B14) | antibiotic susceptibility S/I/R (host strain YMC17/02/B721) | susceptibility category (S/I/R) (host strain YMC17/02/B721) | antibiotic susceptibility S/I/R (host strain YMC17/02/B4039) | susceptibility category (S/I/R) (host strain YMC17/02/B4039) | antibiotic susceptibility S/I/R (host strain YMC17/02/B4520) | susceptibility category (S/I/R) (host strain YMC17/02/B4520) | antibiotic susceptibility S/I/R (host strain YMC17/02/B8414) | susceptibility category (S/I/R) (host strain YMC17/02/B8414) | antibiotic susceptibility S/I/R (host strain YMC17/02/R541) | susceptibility category (S/I/R) (host strain YMC17/02/R541) | antibiotic susceptibility S/I/R (host strain YMC17/02/R2392) | susceptibility category (S/I/R) (host strain YMC17/02/R2392) | antibiotic susceptibility S/I/R (host strain YMC17/03/B4730) | susceptibility category (S/I/R) (host strain YMC17/03/B4730) | antibiotic susceptibility S/I/R (host strain YMC17/03/B5000) | susceptibility category (S/I/R) (host strain YMC17/03/B5000) | antibiotic susceptibility S/I/R (host strain YMC17/03/P971) | susceptibility category (S/I/R) (host strain YMC17/03/P971) | antibiotic susceptibility S/I/R (host strain YMC17/03/R348) | susceptibility category (S/I/R) (host strain YMC17/03/R348) | antibiotic susceptibility S/I/R (host strain YMC17/03/R585) | susceptibility category (S/I/R) (host strain YMC17/03/R585) | antibiotic susceptibility S/I/R (host strain YMC17/03/R1888) | susceptibility category (S/I/R) (host strain YMC17/03/R1888) | antibiotic susceptibility S/I/R (host strain YMC17/03/R3279) | susceptibility category (S/I/R) (host strain YMC17/03/R3279) | antibiotic susceptibility S/I/R (host strain YMC17/03/R4077) | susceptibility category (S/I/R) (host strain YMC17/03/R4077) | antibiotic susceptibility S/I/R (host strain YMC17/03/R4607) | susceptibility category (S/I/R) (host strain YMC17/03/R4607) | antibiotic susceptibility S/I/R (host strain YMC17/04/R488) | susceptibility category (S/I/R) (host strain YMC17/04/R488) | antibiotic susceptibility S/I/R (host strain YMC17/04/R640) | susceptibility category (S/I/R) (host strain YMC17/04/R640) | antibiotic susceptibility S/I/R (host strain YMC/17/05/R1095) | susceptibility category (S/I/R) (host strain YMC/17/05/R1095)
